US4510136A (priority 1983, dated 1985)

Assays:
Pythium aphanadermatum [1] = experiment: Pythium control on corn, seed coating (Example 92); assay type: in vivo; details: 504 h, 2 gm/kg seed
Procedure: Several compounds of the previous examples were incorporated into a proprietary formulation and used to coat corn seeds at a rate of 2 gm/kg seed. After being thoroughly coated, the seeds were allowed to air dry at room temperature. The seeds were then planted into soil amended with a mixture of the fungus Pythium aphanadermatum, sand, and corn meal at a rate sufficient to kill most untreated seeds. The seeds were held at 49° F. for 2 weeks and then at 70° F. for 1 additional week. After this time disease ratings were made.

[2] = test system: Puccinia recondita var. tritici; experiment: Wheat leaf rust control on sprayed wheat seedlings (Example 79); assay type: in vivo; details: Puccinia recondita, 168 h; 100 ppm spray, day before inoculation
Method in brief: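 Disease was scored as leaf rust pustules 7 days after a 24 h, 20° saturated-humidity incubation of seedlings inoculated with P. recondita var. tritici spores. Inoculation followed by one day a run-off spray of 100 ppm compound in water containing 6% acetone and 250 ppm TREM 014.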

Phytophthora infestans = experiment: whole plant or invertebrate; assay type: in vivo; details: Phytophthora infestans, in Solanum lycopersicum, 168 h, read-out: % Control of Tomato Late Blight, 100 ppm spray, day before inoculation
Erysiphe cichoracearum = experiment: Cucumber powdery mildew control on sprayed cucumber seedlings (Example 80); assay type: in vivo; details: Golovinomyces cichoracearum, 168 h, 100 ppm spray, day before inoculation
Pyricularia oryzae = experiment: whole plant or invertebrate; assay type: in vivo; details: Pyricularia oryzae, 168 h, read-out: % Control of Rice Blast, 100 ppm spray, day before inoculation
Erysiphe graminis = experiment: Barley powdery mildew control on sprayed barley seedlings (Example 81); assay type: in vivo; details: Blumeria graminis, 168 h; 100 ppm spray, day before inoculation
Procedure: The compounds of the previous examples were again dissolved in acetone in an amount equal to 6% of the final volume and then suspended at a concentration of 100 ppm in purified water containing 250 ppm of the surfactant TREM 014 (polyhydric alcohol esters). These suspensions were sprayed to the point of run-off on barley seedlings. The following day, the plants were inoculated with a spore suspension of the fungus Erysiphe graminis, causal agent of barley powdery mildew, and incubated in growth room for 7 days. Disease ratings were then made. Treated plants from successful treatments had little or no powdery mildew in contrast to untreated plants which were covered with powdery mildew.

Pythium aphanadermatum [3] = experiment: Pythium control on cotton, seed coating (Example 91); assay type: in vivo; details: 168 h; for pest or weed control at 2 g/kg seed: 2 gm/kg seed
Source text: Several compounds of the previous examples were incorporated into a proprietary formulation and used to coat cotton seeds at a rate of 2 gm/kg seed. After being thoroughly coated, the seeds were allowed to air dry at room temperature. The cotton seeds were then planted into soil amended with the fungus Pythium aphanadermatum, sand, and corn meal at a rate sufficient to kill most untreated seeds. The seeds were held at room temperature for 1 week, after which time disease ratings were made.

Cercospora arachidicola = experiment: Peanut early leafspot control on sprayed peanut seedlings (Example 84); assay type: in vivo; details: Mycosphaerella arachidis, 360 h, read-out: % Control Peanut Easly Leafspot; for pest or weed control at 100 ppm: 100 ppm spray, day before inoculation
Rhizoctonia solani = experiment: Rice sheath blight control on sprayed rice seedlings (Example 87); assay type: in vivo; details: Rhizoctonia solani, 168 h, 100 ppm spray, day before inoculation
Method in brief: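 Disease ratings followed 7 days' growth-room incubation of seedlings given a bran/R. solani mycelium inoculum. Inoculation took place one day after spraying to run-off. The spray was a 100 ppm compound suspension in water containing 6% acetone and 250 ppm TREM 014.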

5 Phytophthora species = assay type: cell-based; details: 200.0 ppm in V-8 agar, 22° C., 6 days
Venturia inaequalis = experiment: Apple scab control on sprayed apple seedlings (Example 82); assay type: in vivo; details: Venturia inaequalis; for pest or weed control at 100 ppm: 100 ppm spray, day before inoculation
Helminthosporium maydis = experiment: Southern corn leaf blight control on sprayed corn seedlings (Example 83); assay type: in vivo; details: Bipolaris maydis, 192 h, 100 ppm spray, day before inoculation
Method in brief: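 Corn seedlings were sprayed to run-off with 100 ppm suspensions (6% acetone, 250 ppm TREM 014) and spore-inoculated the following day. Disease and growth reduction were rated after 24 h saturated humidity at 20° plus 7 days in a growth room.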

Monilinia fructicola = experiment: Stone fruit brown rot control on dipped canned peach halves (Example 86); details: 120 h, 100 ppm dip, percent growth inhibition of colonies after five days
Source text: Several compounds of the previous examples were again dissolved in acetone in an amount equal to 5% of the final volume and then suspended at a concentration of 100 ppm in purified water containing 700 ppm of the surfactant TREM 014 (polyhydric alcohol esters). Canned peach halves were dipped in this suspension for three minutes and then placed to air dry in sterile containers. Upon drying, the peach halves were inoculated with two pieces of Monilinia fructicola mycelium, causal agent of stone fruit brown rot, and incubated in the sterile containers for five days. At that time the radii of the colonies' growth were measured on each peach. […] Percent disease control (percent growth inhibition of colonies on treated peaches as compared to that of colonies on untreated peaches) is expressed in the table below.

apple seedlings = experiment: Phytotoxicity on apple seedlings (Example 82); assay type: in vivo; set-up: key: G = growth reduction; H = hormonal effects
Procedure: These suspensions were sprayed to the point of run-off on apple seedlings. The following day, the plants were inoculated with a spore suspension of the fungus Venturia inaequalis, causal agent of apple scab, and incubated in a saturated humidity chamber at 20° for 24 hours and then in a growth room for an additional 10-12 days. Treated plants from successful treatments had fewer apple scab lesions when compared to untreated plants which were covered with scab lesions. Phytotoxicity expressed as growth reduction was observed on some of the plants in association with disease control.

cucumber seedlings = experiment: Phytotoxicity on cucumber seedlings (Example 80); assay type: in vivo; set-up: key: G = growth reduction; H = hormonal effects; details: 100 ppm spray
Method in brief: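 Disease was rated 7 days after inoculation with powdery mildew spores, which followed one day after a run-off spray of 100 ppm compound in water with 6% acetone and 250 ppm TREM 014. Growth reduction or hormonal effects on the seedlings were recorded as phytotoxicity.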

Uromyces phaseoli = experiment: Bean rust control on sprayed bean seedlings (Example 85); assay type: in vivo
Procedure: This suspension was sprayed to the point of run-off on bean seedlings. The following day, the plants were inoculated with a spore suspension of the fungus Uromyces phaseoli, causal agent of bean rust, and incubated in a saturated humidity chamber at 20° for 24 hours and then in a greenhouse for 7 days. Disease ratings were then made. Treated plants from successful treatments had few or no rust pustules in contrast to untreated plants which were covered with rust pustules.

Row | SMILES | pest or weed control at 100 ppm [2] | pest or weed control at 100 ppm (Phytophthora infestans) | pest or weed control at 100 ppm (Erysiphe cichoracearum) | pest or weed control at 100 ppm (Pyricularia oryzae) | pest or weed control at 100 ppm (Cercospora arachidicola) | pest or weed control at 100 ppm (Rhizoctonia solani) | No. of 5 Phytophthora species controlled in vitro (5 Phytophthora species) | pest or weed control at 100 ppm (Venturia inaequalis) | pest or weed control at 100 ppm (Helminthosporium maydis) | inhibition of growth at 100 µg/mL (Monilinia fructicola) | Phytotoxicity on apple (apple seedlings; 100 ppm spray) | Phytotoxicity on cucumber (cucumber seedlings) | also measured
1 | C[Si](C)(Cn1cncn1)c1ccc(Oc2ccccc2)cc1 [Dimethyl(4-phenoxyphenyl)(1H-1,2,4-triazol-1-ylmethyl)silane] | 0% | 50% | 70% | 0% | 0% | 0% | 0 | 100% | 0% | – | – | – | pest or weed control at 2 g/kg seed (Pythium aphanadermatum [1]): 0%; pest or weed control at 100 ppm (Erysiphe graminis): 0%; pest or weed control at 0.5 g/kg seed (Pythium aphanadermatum [3]; 0.5 gm/kg seed): 18%
2 | CCCC[Si](C)(Cn1cncn1)c1ccc(Cl)cc1 (stereo not drawn) [Butyl(4-chlorophenyl)methyl(1H-1,2,4-triazol-1-ylmethyl)silane] | 80% | 0% | 100% | 0% | 0% | 0% | – | 100% | 0% | 98% | G | G | pest or weed control at 100 ppm (Erysiphe graminis): 90%
3 | C[Si](C)(Cn1cncn1)c1ccc(-c2ccccc2)cc1 [(1,1'-Biphenyl-4-yl)dimethyl(1H--1,2,4-triazol-1-ylmethyl)si] [(1,1'-Biphenyl-4-yl)dimethyl(1H-1,2,4-triazol-1-ylmethyl)silane] | – | – | – | – | – | – | 0 | – | – | – | – | – | % Control Bean Rust (Uromyces phaseoli; 80 ppm spray, day before inoculation): 100%
4 | C[Si](C)(Cn1cncn1)c1ccc(Br)cc1 [(4-Bromophenyl)dimethyl(1H-1,2,4-triazol-1-ylmethyl)silane] | 80% | 0% | 100% | 0% | 0% | – | – | 90% | 90% | – | G | G | –
5 | Cc1ccc([Si](C)(C)Cn2cncn2)cc1 [Dimethyl(4-methylphenyl)(1H-1,2,4-triazol-1-ylmethyl)silane] | 0% | 0% | 100% | 0% | 0% | – | – | 50% | 0% | – | G | G | pest or weed control at 2 g/kg seed (Pythium aphanadermatum [1]): 0%; pest or weed control at 2 g/kg seed (Pythium aphanadermatum [3]): 0%
6 | C[Si](C)(Cn1cncn1)c1ccccc1C(F)(F)F [Dimethyl(1H-1,2,4-triazol-1-ylmethyl)(2-trifluoromethylphenyl)silane] | – | – | 100% | – | – | – | – | – | 0% | – | – | – | pest or weed control at 100 ppm (Erysiphe graminis): 100%; Phytotoxicity on apple (apple seedlings; applied at 400 ppm): G; pest or weed control at 400 ppm (Cercospora arachidicola; applied at 400 ppm): 25%; pest or weed control at 400 ppm (Venturia inaequalis; applied at 400 ppm): 65%
7 | C[Si](Cn1cncn1)(c1ccccc1)c1ccc(F)cc1 (stereo not drawn) [(4-Fluorophenyl)methyl(phenyl)(1H-1,2,4-triazol-1-ylmethyl)silane] | 90% | 0% | 100% | 0% | 100% | 80% | 0 | 100% | 90% | 90% | – | – | % Control Bean Rust (Uromyces phaseoli; applied at 16 ppm): 100%
8 | CCCC[Si](C)(Cn1cncn1)c1ccc(Cl)cc1Cl (stereo not drawn) [Butyl(2,4-dichlorophenyl)methyl(1H-1,2,4-triazol-1-ylmethyl)silane] | 100% | 0% | 100% | 0% | 100% | 50% | 0 | 100% | 100% | 98% | G | G | –
9 | C[Si](Cn1cncn1)(c1ccccc1)c1ccc(Cl)cc1Cl (stereo not drawn) [(2,4-Dichlorophenyl)methyl(phenyl)(1H-1,2,4-triazol-1-ylmethyl)silane] | 100% | 0% | 100% | 0% | 100% | 0% | – | 100% | 0% | – | G | G | –
10 | C[Si](Cn1cncn1)(c1ccccc1)c1ccc(Cl)cc1 (stereo not drawn) [(4-Chlorophenyl)methyl(phenyl)(1H-1,2,4-triazol-1-ylmethyl)silane] | 100% | 0% | 100% | 100% | 100% | 90% | 0 | 100% | 90% | 70% | – | G | % Control Bean Rust (Uromyces phaseoli; applied at 16 ppm): 98%
11 | C[Si](Cn1cncn1)(c1ccc(F)cc1)c1ccc(F)cc1 [bis(4-Fluorophenyl)methyl(1H,-1,2,4-triazol-1-ylmethyl)silane] | 0% | 0% | 100% | 100% | 100% | 80% | 0 | 100% | 100% | 100% | – | G | pest or weed control at 2 g/kg seed (Pythium aphanadermatum [1]): 0%; pest or weed control at 2 g/kg seed (Pythium aphanadermatum [3]): 0%; % Control Bean Rust (Uromyces phaseoli; applied at 16 ppm): 98%
